Measurements reported in patent US4481137A, “Glycoproteins and processes for their production” (Mochida Pharmaceutical Co., Ltd., priority 1982, dated 1984).
≈ marks a conversion by molar mass, not a printed value. Where “and” joins values, the source holds several entries; their conditions need not be identical. Equal entries are not always repeated.

How the values were obtained:
KB cells = assay: Selectivity of cytotoxic effect, KB cells (nasopharynx cancer); assay type: cell-based, Human; conditions: 48 h, 37°C
Method: (§1) Samples of 10^5 cells of each of tumor cell lines including KB cells (nasopharynx cancer), MX-1 cells (breast cancer, supplied from Dr. Shigeru Tsukagoshi, Cancer Institute), HEp-2 cells (throat cancer) and HEL cells (hepatoma, Flow Co.) and of normal cell lines including intestine 407 cells, Girardi heart cells, Chang Liver cells, Vero cells (monkey kidney) and MDCK cells (dog kidney) (Flow Co.), all of which had been precultured for 24 hours respectively, and 10^5 cells of each of P388 and L1210 cells (leukemia, supplied from Dr. Shigeru Tsukagoshi, Cancer Institute), which were used immediately, were each cultured in 1 ml of Eagle's medium containing 10% calf serum and each test substance at 37° C. for 48 hours in a 5% CO2, 95% air atmosphere. Thereafter the number of the viable cells not stained by Trypan Blue was counted under a light microscope, and the concentration of the test substance at which 50% of the cells are killed was calculated against a control taken as 100. […] One unit of the Lymphotoxins and CBF is expressed by a conventional index which is based on the cytotoxicity on mouse L cells (Eds., Bloom, B. R. & Grade, P. R. "In Vitro Methods in Cell-mediated Immunity", Academic Press,1979).

HEp-2 cells = assay: Selectivity of cytotoxic effect, HEp-2 cells (throat cancer); assay type: cell-based, Human; conditions: HEp-2, 48 h, 37°C
Method: as §1

HEL cells = assay: Selectivity of cytotoxic effect, HEL cells (hepatoma); assay type: cell-based, Human; conditions: 48 h, 37°C
Method: as §1

MX-1 cells = assay: Selectivity of cytotoxic effect, MX-1 cells (breast cancer); assay type: cell-based, Human; conditions: MX-1, 48 h, 37°C
Method: as §1

L1210 cells = assay: Selectivity of cytotoxic effect, L1210 cells (leukemia); assay type: cell-based, Mouse; conditions: L1210, 48 h, 37°C
Method: as §1

P388 cells = assay: Selectivity of cytotoxic effect, P388 cells (leukemia); assay type: cell-based, Mouse; conditions: P388, 48 h, 37°C
Method: as §1

intestine 407 cells = assay: Selectivity of cytotoxic effect, normal cells intestine 407; assay type: cell-based, Human; conditions: intestine 407 (normal), 37°C
Method: as §1

Chang Liver cells = assay: Selectivity of cytotoxic effect, normal cells Chang Liver; assay type: cell-based, Human; conditions: 48 h, 37°C
Method: as §1

Vero cells = assay: Selectivity of cytotoxic effect, normal cells Vero (monkey kidney); assay type: cell-based; conditions: 48 h, 37°C
Method: as §1

MDCK cells = assay: Selectivity of cytotoxic effect, normal cells MDCK (dog kidney); assay type: cell-based; conditions: 48 h, 37°C
Method: as §1

[1] = test system: Primary Culture Rat Liver; assay: Selectivity of cytotoxic effect, primary culture rat liver; assay type: cell-based; conditions: primary culture rat liver (normal), 48 h, 37°C; read-out: Concentration for 50% Inhibition of Growth
[2] = test system: tumor cells and normal cells; assay: Cytotoxicity, selectivity tumor cells versus normal cells; assay type: cell-based
Text: One unit of CB is defined to be the amount of the substance at which the growth of 10^5 nasopharynx cancer of KB cell is inhibited by 50%.
as §1

Sarcoma 180 = assay: Influence on mice transplanted with Sarcoma 180, survival; assay type: in vivo, mouse
Text: (§2) Male mice (ddY-Strain) weighing 25-30 g were intraperitoneally transplanted with 3×10^6 cells per animal of Sarcoma 180 or Ehrlich ascites tumor and the period of survival in days was observed.

Ehrlich ascites tumor = assay: Influence on mice transplanted with Ehrlich ascites tumor, survival; assay type: in vivo, mouse
Text: as §2

mouse leukemia L1210 = assay: Influence on the survival days of leukemic mice, L1210; assay type: in vivo
Text: (§3) BDF1 -strain male mice weighing 20-25 g were intraperitoneally transplanted with 10^5 cells per animal of mouse leukemia L1210 or 10^6 cells per animal of mouse leukemia […], and the period of survival in days was observed.

mouse leukemia P388 = assay: Influence on the survival days of leukemic mice, P388; assay type: in vivo
Text: as §3

Lewis's lung carcinoma = assay: Influence on the survival days of lung carcinoma bearing mice; assay type: in vivo, mouse
Text: BDF1 -strain male mice weighing 20-25 g were transplanted with 2×10^6 cells of Lewis's lung carcinoma intramuscularly to the right thigh, and the survival days were observed.

mouse melanoma B 16 = assay: Influence on the survival period of melanoma bearing mice; assay type: in vivo
Text: BDF1 -strain male mice weighing 20-25 g had transplanted subcutaneously in their back 10^6 cells per animal of mouse melanoma B 16, and the survival days were observed.

human breast cancer MX-1 = assay: Influence on breast cancer bearing mice; assay type: in vivo, BALB/C strain nude mice; conditions: daily dose 0.5 mg/kg, mean ± SE (control 9.7 ± 2.2)
Method: BALB/C strain nude mice weighing 20-25 g, 6 animals in each group, had transplanted subcutaneously into their backs 2 mm square segments of human breast cancer MX-1. CBX3 obtained in Example 26 or 29 was intravenously administered into the mice for 14 days from the 14th day after the transplantation. On the 15th day after the first administration,the volume of the primary tumor was measured.

[3] = test system: 3-Methylcholanthrene-induced tumor; assay: Influence on methylcholanthrene-induced tumor; assay type: in vivo, ddY-strain mice; conditions: daily dose 0.5 mg/kg, mean ± SE (control 10.5 ± 2.3)
Method: 3-Methylcholanthrene dissolved in olive oil was subcutaneously injected to the lateral abdomen of ddY-strain mice, weighing 20-25 g, 8 animals in each group, at 0.5 mg per mouse. CBX3 obtained in Example 26 or 29 was intravenously administered to the mice once a day for 21 days from about 60 days after the 3-Methylcholanthren injection. On the 21st day after the first CBX3 administration, the volume of the tumor was measured.

[4] = test system: tumor cells and normal cells; conditions: as reported in the literature; cited from earlier work
[5] = test system: acute myelogenous leukemia cells M-1; assay: Effect on inducing differentiation of tumor cells; assay type: cell-based; conditions: 20.0 ng/ml, 48 h (control 1)
Method: According to the method of Hozumi, M. et al (Cancer Research, Vol, 40, 2919-2924 (1980)), 5×10^5 cells of acute myelogenous leukemia cells M-1 (supplied from Dr. Motoo Hozumi, Saitama Cancer Center) were suspended in 1 ml of Eagle's medium containing 10% calf serum and also containing amino acids and vitamins in amounts twice the ordinary levels, to which each test substance had been added, and cultured at 37° C. for 48 hours in a 5% CO2, 95% air atmosphere. Thereafter, the cells were resuspended in a medium containing 0.2% polystyrene latex particles (Dow Chemical Co.) and incubated at 37° C. for 4 hours. Then the total number of cells which phagocytotized the particles and the total number of cells were counted under a light microscope, and the differentiation rate was calculated from the ratio of these cells.

Lewis's lung cancer = assay: Influence on the lung metastasis of cancer; assay type: in vivo, mouse; conditions: mean ± SE
Method: Groups of BDF1 -strain male mice weighing 20-30 g, 6 animals in each group, had transplanted subcutaneously into their backs 2 mm square segments of Lewis's lung cancer. […] On the 21st day after transplantation, the mass of primary tumor was isolated and weighed, and the number of the metastasized nodes in the animal's lungs was calculated according to the method of Wexler, H. (J. Natl. Cancer Institute, Vol. 36 641 (1966)).

[6] = Homo sapiens, read-out: Concentration for 50% Inhibition of Growth
[7] = Mus musculus, read-out: Concentration for 50% Inhibition of Growth
[8] = daily dose 0.5 mg/kg, 0.5 mg/kg

With `CO[C@@]12[C@H](COC(N)=O)C3=C(C(=O)C(C)=C(N)C3=O)N1C[C@@H]1N[C@@H]12` [Mitomycin C] the “Concentration for 50% Inhibition of Growth” value (KB cells) was 35 µg/mL, the IC50 (KB cells; [6]) was 34 µg/mL (≈ 102 µM) and the “Concentration for 50% Inhibition of Growth” value (HEp-2 cells) was 18 µg/mL. The IC50 (HEp-2 cells; [6]) was 17 µg/mL (≈ 50.8 µM), the “Concentration for 50% Inhibition of Growth” value (HEL cells) was 25 µg/mL and the IC50 (HEL cells; [6]) was 26 µg/mL (≈ 77.8 µM). The IC50 (MX-1 cells; Homo sapiens, MX1, 48 h, read-out: Concentration for 50% Inhibition of Growth) was 32 µg/mL (≈ 95.7 µM), the “Concentration for 50% Inhibition of Growth” value (MX-1 cells) was 30 µg/mL and the “Concentration for 50% Inhibition of Growth” value (L1210 cells) was 44 µg/mL. For the same compound, the IC50 (L1210 cells; [7]) was 43 µg/mL (≈ 129 µM), the IC50 (P388 cells; [7]) was 36 µg/mL (≈ 108 µM) and the “Concentration for 50% Inhibition of Growth” value (P388 cells) was 37 µg/mL. The IC50 (intestine 407 cells; Homo sapiens, Intestine 407, 48 h, read-out: Concentration for 50% Inhibition of Growth) was 32 µg/mL (≈ 95.7 µM), the “Concentration for 50% Inhibition of Growth” value (intestine 407 cells; 48 h) was 35 µg/mL and the “Concentration for 50% Inhibition of Growth” value (Chang Liver cells) was 21 µg/mL. For the same compound, the IC50 (Chang Liver cells; Homo sapiens, Chang liver, read-out: Concentration for 50% Inhibition of Growth) was 19 µg/mL (≈ 56.8 µM), the “Concentration for 50% Inhibition of Growth” value (Vero cells) was 50 µg/mL and the IC50 (Vero cells; Primates, Vero, read-out: Concentration for 50% Inhibition of Growth) was 52 µg/mL (≈ 156 µM). For the same compound, the “Concentration for 50% Inhibition of Growth” value (MDCK cells) was 44 µg/mL, the IC50 (MDCK cells; Canis lupus familiaris, MDCK, read-out: Concentration for 50% Inhibition of Growth) was 41 µg/mL (≈ 123 µM) and the IC50 [1] was 61 µg/mL (≈ 182 µM). The “Cytotoxicity, selectivity for tumor cells over normal cells (in words)” value [2] was “nonselective cytotoxicity to the normal cells and the tumor cells”, the “Average Survival Days (% of control group)” value (Sarcoma 180; Sarcoma 180, daily dose 0.5 mg/kg, 0.5 mg/kg) was 140% and 138% and 142% and the “Average Survival Days (% of control group)” value (Ehrlich ascites tumor; [8]) was 168% and 164% and 166%. For the same compound, the “Average Survival Days (% of control group)” value (mouse leukemia L1210; L1210, daily dose 0.5 mg/kg, 0.5 mg/kg) was 128% and 136%, the “Average Survival Days (% of control group)” value (mouse leukemia L1210; L1210, dose 5.0 mg/kg (Table 4-3)) was 132% and the “Average Survival Days (% of control group)” value (mouse leukemia P388; P388, daily dose 0.5 mg/kg, 0.5 mg/kg) was 133% and 130%. For the same compound, the “Average Survival Days (% of control group)” value (mouse leukemia P388; P388, dose 5.0 mg/kg (Table 4-3)) was 141%, the “Average Survival Days (% of control group)” value (Lewis's lung carcinoma; [8]) was 121% and 120% and the “Average Survival Days (% of control group)” value (mouse melanoma B 16; melanoma B 16, daily dose 0.5 mg/kg, 0.5 mg/kg) was 140%. The “Tumor Volume” value (human breast cancer MX-1) was 4.4 ± 1.1 cm^3 and the “Tumor Volume” value [3] was 6.6 ± 1.3 cm^3.
In the case of Tumor Necrosis Factor, the “Cytotoxic effect, selectivity for tumor cells over normal cells (in words)” value [4] is listed as “selective cytotoxic effect on tumor cells”.
In the case of `C[C@@H]1C[C@H]2[C@@H]3CCC4=CC(=O)C=C[C@]4(C)[C@@]3(F)[C@@H](O)C[C@]2(C)[C@@]1(O)C(=O)CO` [Dexamethasone], the “Differentiation Rate” value [5] is reported as 25%.
For `O=P1(N(CCCl)CCCl)NCCCO1` (centres unmarked) [Cyclophosphamide], the “Average Survival Days (% of control group)” value (Sarcoma 180; Sarcoma 180, daily dose 20 mg/kg, 20 mg/kg) was 172% and 170%, the “Average Survival Days (% of control group)” value (Ehrlich ascites tumor; daily dose 20 mg/kg, 20 mg/kg) was 212% and 206% and the “Average Survival Days (% of control group)” value (mouse leukemia L1210; L1210, daily dose 20 mg/kg, 20 mg/kg) was 172% and 149%. For the same compound, the “Average Survival Days (% of control group)” value (mouse leukemia P388; P388, daily dose 20 mg/kg, 20 mg/kg) was 147% and 145%, the “Average Survival Days (% of control group)” value (Lewis's lung carcinoma; daily dose 20 mg/kg, 20 mg/kg) was 163% and 164% and the “Average Survival Days (% of control group)” value (mouse melanoma B 16; melanoma B 16, daily dose 20 mg/kg) was 158%. The “Tumor Weight” value (Lewis's lung cancer; Table 7-1 Experiment 1 (control 9.6 ± 1.9), daily dose printed 20 unit/kg) was 3.4 ± 0.7 g, the “No. of Metastasized Nodes in Lung” value (Lewis's lung cancer; Table 7-1 Experiment 1 (control 29.2 ± 7.3), daily dose printed 20 unit/kg) was 0.4 ± 0.2 and the “Tumor Weight” value (Lewis's lung cancer; Table 7-2 (control 7.8 ± 0.5), daily dose printed 20 unit/kg) was 3.5 ± 0.6 g. For the same compound, the “No. of Metastasized Nodes in Lung” value (Lewis's lung cancer; Table 7-2, daily dose printed 20 unit/kg) was 0.6 ± 0.3.
